{"source": "patent US6770664B2", "about": "“Bicyclic heterocyclic substituted phenyl oxazolidinone antibacterials, and related compositions and methods” (priority 1999, dated 2004)"}
{"smiles": "CC(=O)NC[C@H]1CN(c2ccc(N3Cc4cn(CC(F)(F)F)nc4C3)c(F)c2)C(=O)O1", "note": "[Compound 70]", "melting point": "170 to 172 °C"}
{"smiles": "CC(=O)NC[C@H]1CN(c2ccc(N3Cc4cnc(-c5ccccn5)nc4C3)c(F)c2)C(=O)O1", "note": "[Compound 42]", "melting point": "216 to 220 °C"}
{"smiles": "N/C(=N\\[N+](=O)[O-])NC[C@H]1CN(c2ccc(N3Cc4cccnc4C3)c(F)c2)C(=O)O1", "note": "[Compound 24]", "melting point": "202 to 206 °C"}
{"smiles": "O=C1O[C@@H](COc2cnccn2)CN1c1ccc(-n2cc3cccnc3c2)c(F)c1", "note": "[Compound 10]", "melting point": "192 to 194 °C"}
{"smiles": "O=C1O[C@@H](COc2ccon2)CN1c1ccc(N2Cc3cccnc3C2)c(F)c1", "note": "[Compound 7]", "melting point": "182 to 185 °C"}
{"smiles": "O=C1O[C@@H](COc2ccon2)CN1c1ccc(-n2cc3cccnc3c2)c(F)c1", "note": "[Compound 8]", "melting point": "133 to 135 °C"}
{"smiles": "CC(=O)NC[C@H]1CN(c2ccc(N3Cc4cnn(CC5CC5)c4C3)c(F)c2)C(=O)O1", "note": "(single isomer, unassigned) [Compound 73]", "melting point": "234 to 236 °C"}
{"smiles": "CC(=O)NC[C@H]1CN(c2ccc(N3Cc4c[nH]nc4C3)c(F)c2)C(=O)O1", "note": "[Compound 44]", "melting point": "244 to 247 °C (dec.)"}
{"smiles": "CC(=O)NC[C@H]1CN(c2ccc(N3Cc4cnn(C(C)(C)C)c4C3)c(F)c2)C(=O)O1", "note": "[Compound 52]", "melting point": "155 to 157 °C"}
{"smiles": "CC(=O)NC[C@H]1CN(c2ccc(N3Cc4cn(C[C@@H](O)CO)nc4C3)c(F)c2)C(=O)O1", "note": "[Compound 69]", "melting point": "184 to 188 °C"}
{"smiles": "CC(=O)NC[C@H]1CN(c2ccc(N3Cc4cnc(C)nc4C3)c(F)c2)C(=O)O1", "note": "[Compound 35]", "melting point": "234 °C (dec.)"}
{"smiles": "CC(=O)NC[C@H]1CN(c2ccc(N3C(=O)c4ccccc4C3=O)c(F)c2)C(=O)O1", "note": "[Compound 47]", "melting point": "240 to 242 °C"}
{"smiles": "CC(=O)NC[C@H]1CN(c2ccc(N3Cc4cnc(-c5cccnc5)nc4C3)c(F)c2)C(=O)O1", "note": "[Compound 43]", "melting point": "265 to 270 °C (dec.)"}
{"smiles": "O=C1O[C@@H](COc2cnccn2)CN1c1ccc(N2Cc3cccnc3C2)c(F)c1", "note": "[Compound 9]", "melting point": "225 to 230 °C"}
{"smiles": "CC(=O)NC[C@H]1CN(c2ccc(-n3cc4cccnc4c3)c(F)c2)C(=O)O1", "note": "[Compound 4]", "melting point": "220 to 225 °C (dec.)"}
{"smiles": "CC(=O)NC[C@H]1CN(c2ccc(-n3cc4cncnc4c3)c(F)c2)C(=O)O1", "note": "[Compound 37]", "melting point": "164 to 166 °C"}
{"smiles": "[N-]=[N+]=NC[C@H]1CN(c2ccc(N3Cc4cccnc4C3)c(F)c2)C(=O)O1", "note": "[Example 7]", "melting point": "175 to 180 °C (dec.)"}
{"smiles": "O=C1O[C@@H](COc2cnsn2)CN1c1ccc(-n2cc3cccnc3c2)c(F)c1", "note": "[Compound 12]", "melting point": "185 to 188 °C"}
{"smiles": "CNC(=S)n1cc2c(n1)CN(c1ccc(N3C[C@H](CNC(C)=O)OC3=O)cc1F)C2", "note": "[Compound 87]", "melting point": "246 to 249 °C"}
{"smiles": "CC(=O)NC[C@H]1CN(c2ccc(N3Cc4ccccc4C3=O)c(F)c2)C(=O)O1", "note": "[Compound 46, N-[[(5S)-3-[4-(1,3-dihydro-1-oxo-2H-isoindol-2-yl)-3-fluorophenyl]-2-oxo-5-oxazolidinyl]methyl]acetamide]", "melting point": "211 to 214 °C"}
{"smiles": "CCCn1ncc2c1CN(c1ccc(N3C[C@H](CNC(C)=O)OC3=O)cc1F)C2", "note": "[Compound 45]", "melting point": "204 to 208 °C"}
{"smiles": "O=C1O[C@@H](COc2cnsn2)CN1c1ccc(N2Cc3cccnc3C2)c(F)c1", "note": "[Compound 11]", "melting point": "185 to 187 °C"}
{"smiles": "CC(=O)NC[C@H]1CN(c2ccc(N3Cc4cnc(-c5ccncc5)nc4C3)c(F)c2)C(=O)O1", "note": "[Compound 41]", "melting point": "245 to 250 °C (dec.)"}
{"smiles": "CC(=O)NC[C@H]1CN(c2ccc(N3Cc4cn(CCCO)nc4C3)c(F)c2)C(=O)O1", "note": "[Compound 68]", "melting point": "171 to 173 °C"}
{"smiles": "O=C1O[C@@H](CO)CN1c1ccc(N2Cc3cccnc3C2)c(F)c1", "note": "[Compound 2, (5R)-3-[4-(5,7-Dihydro-6H-pyrrolo[3,4-b]pyridin-6-yl)-3-fluorophenyl]-5-(hydroxymethyl)-2-oxazolidinone]", "melting point": "208 to 212 °C (dec.)"}
{"smiles": "CS/C(=N\\C#N)NC[C@H]1CN(c2ccc(N3Cc4cccnc4C3)c(F)c2)C(=O)O1", "note": "[Compound 22]", "melting point": "204 to 207 °C"}
{"smiles": "CC(=O)NC[C@H]1CN(c2ccc(-n3cc4cc[n+]([O-])cc4c3)c(F)c2)C(=O)O1", "note": "[Compound 27, N-[[(5S)-3-[3-Fluoro-4-(5-oxido-2H-pyrrolo[3,4-c]pyridin-2-yl)phenyl]-2-oxo-5-oxazolidinyl]methyl]acetamide]", "melting point": "219 to 225 °C (dec.)"}
{"smiles": "CC(=O)NC[C@H]1CN(c2ccc(N3Cc4cnc(-c5cnccn5)nc4C3)c(F)c2)C(=O)O1", "note": "[Compound 38]", "melting point": "212 to 214 °C"}
{"smiles": "CC(=O)NC[C@H]1CN(c2ccc(N3Cc4cn(C[C@H](O)CO)nc4C3)c(F)c2)C(=O)O1", "note": "[Compound 66]", "melting point": "188 to 191 °C"}
{"smiles": "CC(=O)NC[C@H]1CN(c2ccc(N3Cc4cn(CCO)nc4C3)c(F)c2)C(=O)O1", "note": "[Compound 65, N-[[(5S)-3-[4-[2,6-dihydro-2-(2-hydroxyethyl)pyrrolo[3,4-c]pyrazol-5(4H)-yl]-3-fluorophenyl]-2-oxo-5-oxazolidinyl]methyl]acetamide]", "melting point": "232 to 242 °C (dec.)"}
{"smiles": "CC(=O)NC[C@H]1CN(c2ccc(N3Cc4cccnc4C3=O)c(F)c2)C(=O)O1", "note": "[Compound 48]", "melting point": "230 to 232 °C"}
{"smiles": "CC(=O)NC[C@@H]1CN(c2ccc(-n3cc4cccnc4c3)c(F)c2)C(=O)O1", "note": "[Compound 6]", "melting point": "181 to 185 °C (dec.)"}
{"smiles": "CC(=O)NC[C@H]1CN(c2ccc(N3Cc4cnn(C)c4C3)c(F)c2)C(=O)O1", "note": "[Compound 50]", "melting point": "211 to 213 °C"}
{"smiles": "CC(=O)NC[C@H]1CN(c2ccc(N3Cc4ccccc4C3)c(F)c2)C(=O)O1", "note": "[Compound 1, N-[[(5S)-3-[4-(1,3-Dihydro-2H-isoindol-2-yl)-3-fluorophenyl]-2-oxo-5-oxazolidinyl]methyl]acetamide]", "melting point": "240 to 242 °C"}
{"smiles": "CC(=O)NC[C@H]1CN(c2ccc(N3Cc4ncccc4C3=O)c(F)c2)C(=O)O1", "note": "[Compound 49]", "melting point": "207 to 209 °C"}
{"smiles": "O=C(NC[C@H]1CN(c2ccc(N3Cc4cccnc4C3)c(F)c2)C(=O)O1)C1CC1", "note": "[Compound 15]", "melting point": "235 to 240 °C"}
{"smiles": "CCC(=O)NC[C@H]1CN(c2ccc(N3Cc4cccnc4C3)c(F)c2)C(=O)O1", "note": "[Compound 13]", "melting point": "110 to 112 °C"}
{"smiles": "CC(=O)NC[C@H]1CN(c2ccc(N3Cc4cnn(CCO)c4C3)c(F)c2)C(=O)O1", "note": "[Compound 53]", "melting point": "163 to 165 °C"}
{"smiles": "CC(=O)NC[C@H]1CN(c2ccc(N3Cc4cncnc4C3)c(F)c2)C(=O)O1", "note": "[Compound 36]", "melting point": "230 to 232 °C"}
{"smiles": "CC(=O)NC[C@H]1CN(c2ccc(N3Cc4cn(-c5ccccn5)nc4C3)c(F)c2)C(=O)O1", "note": "[Compound 51]", "melting point": "259 to 261 °C (dec.)"}
{"smiles": "CC(=O)NC[C@H]1CN(c2ccc(-n3cc4ccncc4c3)c(F)c2)C(=O)O1", "note": "[Compound 28]", "melting point": "219 to 225 °C (dec.)"}
{"smiles": "CS(=O)(=O)NC[C@H]1CN(c2ccc(N3Cc4cccnc4C3)c(F)c2)C(=O)O1", "note": "[Compound 20]", "melting point": "172 to 176 °C"}
